# How the values were obtained:
# [1] = In vivo assessment of CYP induction (Basel phenotyping cocktail before and after rifampicin); settings: 15 healthy volunteers, rifampicin 600 mg per day for 7 days
# Experimental: We used the ratio between the induced and the basal state of the Cl/F of midazolam as a marker of CYP3A4 induction.
# Experiments were carried out 5 times unless stated otherwise. Means were compared with the two-tailed Student’s t-test using GraphPad Prism 6.0 (GraphPad Software, San Diego, CA, United States). Data are presented as mean ± SD unless stated otherwise. Induction levels above twofold with statistically significant differences (p < 0.05) were considered relevant.
# beta-blocking activity = system: beta-blocking activity; parameters: method as in Regardh et al., 1974; settings: both active metabolites together; ref Regardh et al., 1974; cited from earlier work
# [2] = molecular target: recombinant human CYP3A4 supersomes (Homo sapiens, UniProt P08684)
# Experimental: (§1) Microsomes and supersomes were stored at −80°C until used.
# (§2) For inhibition studies, the reaction mixture was pre-incubated with the specific inhibitors (concentrations indicated in the figures) for 10 min prior to the addition of test compounds and NADPH. […] Following the incubation in the absence (control) or presence of inhibitors, the reactions were terminated at selected time-points by transferring 50 μL of the incubation mixture into a matrix autosampler vial, to which a threefold volume of ice-cold methanol (containing the internal standards) was added. […] The formation rate (pmol/min/pmol P450) in the absence and the presence of the inhibitors was calculated from the linear parts of the concentration-time curves and expressed as an absolute value or as a percentage relative to the control values.
# (§3) Chromatographic separation was performed on a Shimadzu HPLC system (Shimadzu AG, Reinach, Switzerland), coupled to a triple quadrupole tandem mass spectrometer (API4000 or API5500, AB/MDS Sciex, Concord, Canada), operating in positive electrospray ionization mode.
# (§4) The CYP activities were determined as the respective metabolite formation rates corresponding to the slope in the metabolite concentration versus time graphs.
# CYP3A4 = assay: Metoprolol metabolism by human liver microsomes with ketoconazole; assay type: in vitro ADME; settings: pooled human liver microsomes, pH 7.4, probe metoprolol 25 μM
# Experimental: as §1, §2, §3, §4
# CYP2D6 [3] = molecular target: T1, CYP2D6 (Homo sapiens, UniProt P10635); parameters: Pooled human liver microsomes (HLM; Lot #38289); tissue Corning Life science Lot #38289; host or cells: pooled human liver microsomes; method as in Glaeser et al., 2005; settings: enterocytes of human subjects; 600 mg rifampicin for 10 days; without reaching statistical significance; ref Glaeser et al., 2005; cited from earlier work
# T1 sequence (P10635 whole entry): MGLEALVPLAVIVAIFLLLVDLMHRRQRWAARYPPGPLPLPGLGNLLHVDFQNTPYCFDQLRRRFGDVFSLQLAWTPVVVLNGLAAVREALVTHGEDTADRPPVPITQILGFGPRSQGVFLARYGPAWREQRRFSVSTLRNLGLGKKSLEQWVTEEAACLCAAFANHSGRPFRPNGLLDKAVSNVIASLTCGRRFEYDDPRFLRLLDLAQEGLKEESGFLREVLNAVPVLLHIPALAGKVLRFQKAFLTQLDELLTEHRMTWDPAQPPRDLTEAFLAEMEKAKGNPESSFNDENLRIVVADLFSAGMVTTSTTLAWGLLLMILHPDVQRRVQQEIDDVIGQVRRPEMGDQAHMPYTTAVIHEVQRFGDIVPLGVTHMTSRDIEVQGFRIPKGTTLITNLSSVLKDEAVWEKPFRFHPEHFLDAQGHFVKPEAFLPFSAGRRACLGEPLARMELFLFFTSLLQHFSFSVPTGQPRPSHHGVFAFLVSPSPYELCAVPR
# CYP2D6 mRNA [4] = assay: rt-PCR quantification of CYP2D6 mRNA in HepaRG cells after rifampicin; assay type: cell-based, human
# Experimental: HepaRG cells were purchased from Biopredic International (Rennes, France) as undifferentiated cryopreserved cells with the associated medium. Freshly split HepaRG cells were seeded at 9000 cells/well in 96-well plates (or 0.05 × 10^6 cells/well in 24-well plates) and treated over the course of the next 4 weeks as previously described ([Aninat et al., 2006]).
# (§5) A total of 350 μL of RLT buffer (Qiagen, Hombrechtikon, Switzerland) was used to lyse the respective liver cell models, after which the lysate was transferred to Qiashredder columns and centrifuged for 2 min at 13,000 rpm. From the eluate, total RNA was extracted and purified according to the manufacturer’s instructions (Qiagen, RNeasy mini extraction kit). The concentration of the extracted RNA was measured spectrophotometrically at 260 nm on a NanoDrop 2000 (Thermo Fisher Scientific, Wohlen, Switzerland). cDNA was reverse transcribed from the isolated RNA using the Qiagen omniscript system. For quantitative rt-PCR, 10 ng cDNA was used. […] Quantification of mRNA expression levels was performed using the comparative-threshold cycle method ([Livak and Schmittgen, 2001]).
# CYP2D6 mRNA [5] = assay: rt-PCR quantification of CYP2D6 mRNA in primary human hepatocytes after rifampicin; assay type: cell-based; settings: primary human hepatocytes Lot #Hu8119; rifampicin 20 μM 48 h
# Experimental: Primary cryopreserved human hepatocytes (Life Technologies, Lot #Hu8119 and Lot #Hu8124) were plated at 0.05 × 10^6 cells/well in collagen type-1 precoated 96-well plates (or 0.25 × 10^6 cells/well in 24-well plates) in William’s E medium supplemented with 10% FCS (v/v), 1% L-glutamine 200 mM (v/v), 1% Pen Strep (v/v), 0.1% dexamethasone 100 μM (v/v), and 0.1% insulin 100 μM (v/v), and then incubated at 37°C in the presence of 5% CO2 and 95% humid air.
# as §5
# CYP2D6 [6] = molecular target: T1, CYP2D6; settings: primary human hepatocytes; without reaching statistical significance; ref Madan et al., 2003; cited from earlier work
# [7] = system: primary human hepatocytes
# Experimental: Experimental control culture wells were treated with solvent [DMSO, 0.1% (v/v)] alone. […] The bottoms of the wells were scraped using a pipette tip, after which the contents were transferred to an autosampler vial.
# as §3, §4
# For induction experiments, metabolite formation rates were determined as described above, and the fold change versus the basal conditions was calculated as the ratio of the metabolite formation rate in wells exposed to an inducer versus formation rates in control wells.
# CYP2D6 [8] = molecular target: T1, CYP2D6; assay: Metoprolol metabolism by human liver microsomes with quinidine
# Experimental: as §1, §2, §3, §4
# [9] = cited from earlier work
# CYP2D6 [10] = molecular target: T1, CYP2D6; settings: ref Johnson and Burlew, 1996; cited from earlier work
# [11] = Metoprolol metabolism by human liver microsomes without inhibitor; assay type: in vitro ADME; settings: inhibition studies using human liver microsomes; mean ± 95%CI
# Experimental: as §1, §2, §3, §4
# recombinant human CYP3A4 supersomes, sequence (P08684 whole entry): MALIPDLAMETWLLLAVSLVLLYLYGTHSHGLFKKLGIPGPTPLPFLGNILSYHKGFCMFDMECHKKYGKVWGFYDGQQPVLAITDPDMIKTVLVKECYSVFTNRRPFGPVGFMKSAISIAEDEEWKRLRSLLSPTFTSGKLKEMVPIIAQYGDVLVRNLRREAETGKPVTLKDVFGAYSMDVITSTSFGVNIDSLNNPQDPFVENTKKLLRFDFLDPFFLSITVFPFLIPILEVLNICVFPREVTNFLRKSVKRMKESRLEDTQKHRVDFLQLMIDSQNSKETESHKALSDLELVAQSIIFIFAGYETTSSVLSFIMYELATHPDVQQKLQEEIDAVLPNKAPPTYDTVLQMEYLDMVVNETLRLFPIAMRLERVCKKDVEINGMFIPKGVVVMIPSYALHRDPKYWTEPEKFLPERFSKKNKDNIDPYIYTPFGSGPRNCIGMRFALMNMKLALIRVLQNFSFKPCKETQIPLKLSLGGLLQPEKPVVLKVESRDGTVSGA
smiles,measurement,setting,value
COCC(O)c1ccc(OCC(O)CNC(C)C)cc1 (stereo not drawn) [α-OH-metoprolol],increase in α-OH-metoprolol formation / AUC after rifampicin,"[1]; 12.5 mg metoprolol oral, statistically not significant",9%
same,contribution to the total beta-blocking activity of metoprolol,beta-blocking activity,approximately 10%
Cc1ncc2n1-c1ccc(Cl)cc1C(c1ccccc1F)=NC2 [midazolam],clearance of midazolam after rifampicin,"[1]; 2 mg midazolam, all subjects",increase
same,formation of 1′-OH-midazolam from midazolam by CYP3A4 overexpressing supersomes,[2]; recombinant enzyme,rapid
CC(=O)N1CCN(c2ccc(OCC3COC(Cn4ccnc4)(c4ccc(Cl)cc4Cl)O3)cc2)CC1 (centres unmarked) [ketoconazole],inhibition at 1 μM,CYP3A4,9.9 to 17.5%
CO[C@H]1/C=C/O[C@@]2(C)Oc3c(C)c(O)c4c(O)c(c(/C=N/N5CCN(C)CC5)c(O)c4c3C2=O)NC(=O)/C(C)=C\C=C\[C@H](C)[C@H](O)[C@@H](C)[C@@H](O)[C@@H](C)[C@H](OC(C)=O)[C@@H]1C [rifampicin],increase of CYP2D6 protein expression,CYP2D6 [3],1.6 factor
same,induction of CYP2D6 mRNA,"CYP2D6 mRNA [4]; HepaRG cells, rifampicin 20 μM for 48 h",not induced
same,effect on CYP2D6 mRNA,"CYP2D6 mRNA [4]; both cell models (HepaRG cells and primary human hepatocytes), 20 μM rifampicin",not affected
same,CYP2D6 mRNA expression levels,CYP2D6 mRNA [5],no increase
same,increase of the activity of dextromethorphan O-demethylation,CYP2D6 [6],1.3 factor
same,increase in O-demethylation of metoprolol,"[7]; primary human hepatocytes Lot #Hu8124, rifampicin 20 μM 48 h",1.4 factor
same,increase in production of α-OH-metoprolol,"[7]; primary human hepatocytes treated with rifampicin (Figure 3D, lot #Hu8124)",75%
C=C[C@H]1C[N@@]2CC[C@H]1C[C@@H]2[C@@H](O)c1ccnc2ccc(OC)cc12 [quinidine],block of formation of the phenylacetate metabolite from O-demethylated metoprolol,"CYP2D6 [8]; HLM, quinidine 1 μM",blocked completely
same,activity at 1 μM,"CYP2D6 [8]; human, pooled human liver microsomes, pH 7.4, probe metoprolol 25 μM",8%
COCCc1ccc(OC[C@H](O)CNC(C)C)cc1 [R-metoprolol],clearance higher than that of S-metoprolol,"[9]; human, in vivo",40%
COc1ccc2c(c1)[C@]13CCCC[C@@H]1[C@H](C2)N(C)CC3 [dextromethorphan],conversion to dextrorphan,"[2]; rhCYP3A4 supersomes, check for CYP2D6 activity, data not shown",not quantifiable
COCCc1ccc(OCC(O)CNC(C)C)cc1 (centres unmarked) [metoprolol],part of orally administered metoprolol metabolized by CYP2D6,CYP2D6 [10],Approximately 70%
same,"contribution of CYP3A4, 2B6, and 2C9 together to N-dealkylation of metoprolol",[11],7.6 ± 1.7%
same,"contribution of CYP3A4, 2B6, and 2C9 together to O-demethylation of metoprolol",[11],19.0 ± 2.6%
same,"contribution of CYP3A4, 2B6, and 2C9 together to α-hydroxylation of metoprolol",[11],4.0 ± 0.7%
same,bioavailability,"[9]; oral, ref Regardh and Johnsson, 1980",approximately 50%
CC(C)NCC(O)COc1ccc(CCO)cc1 (centres unmarked) [O-demethylmetoprolol],contribution to the total beta-blocking activity of metoprolol,beta-blocking activity,approximately 10%
CCC1(c2ccccc2)C(=O)NC(=O)NC1=O [phenobarbital],increase of the activity of dextromethorphan O-demethylation,CYP2D6 [6],almost identical effect
